# Laboratory results: ChEMBL document CHEMBL1149237, “Design and synthesis of benzofused heterocyclic RXR modulators” (Bioorg Med Chem Lett, 2004)
# Tests used:
# [1] = molecular target: T1, Retinoic acid receptor RXR-alpha (Homo sapiens) (UniProt P19793); experiment: Antagonistic efficacy in CV-1 cells (LGD1069 was used as reference); assay type: functional, cell-based; settings: Cercopithecidae
# T1 sequence (whole entry): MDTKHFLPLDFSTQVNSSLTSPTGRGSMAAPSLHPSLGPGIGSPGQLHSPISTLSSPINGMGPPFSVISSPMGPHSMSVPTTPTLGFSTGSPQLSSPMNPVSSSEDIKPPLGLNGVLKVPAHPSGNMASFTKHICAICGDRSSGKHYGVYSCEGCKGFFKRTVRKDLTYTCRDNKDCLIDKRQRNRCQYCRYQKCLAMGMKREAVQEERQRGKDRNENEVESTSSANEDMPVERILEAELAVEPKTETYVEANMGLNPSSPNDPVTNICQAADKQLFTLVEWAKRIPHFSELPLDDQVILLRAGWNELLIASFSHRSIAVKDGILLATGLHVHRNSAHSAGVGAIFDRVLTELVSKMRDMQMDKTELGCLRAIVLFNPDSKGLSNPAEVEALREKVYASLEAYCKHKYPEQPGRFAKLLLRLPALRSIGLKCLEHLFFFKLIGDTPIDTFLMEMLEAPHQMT
# Cercopithecidae = experiment: RAR agonist synergy calculated using 3 nM of TTNPB; assay type: functional
# [2] = molecular target: T2, Retinoic acid receptor gamma (Homo sapiens, UniProt P13631); experiment: Ability to displace [3H]ATRA from Retinoic acid receptor gamma in CV-1 cells; assay type: cell-based, Cercopithecidae
# T2 sequence (P13631 whole entry): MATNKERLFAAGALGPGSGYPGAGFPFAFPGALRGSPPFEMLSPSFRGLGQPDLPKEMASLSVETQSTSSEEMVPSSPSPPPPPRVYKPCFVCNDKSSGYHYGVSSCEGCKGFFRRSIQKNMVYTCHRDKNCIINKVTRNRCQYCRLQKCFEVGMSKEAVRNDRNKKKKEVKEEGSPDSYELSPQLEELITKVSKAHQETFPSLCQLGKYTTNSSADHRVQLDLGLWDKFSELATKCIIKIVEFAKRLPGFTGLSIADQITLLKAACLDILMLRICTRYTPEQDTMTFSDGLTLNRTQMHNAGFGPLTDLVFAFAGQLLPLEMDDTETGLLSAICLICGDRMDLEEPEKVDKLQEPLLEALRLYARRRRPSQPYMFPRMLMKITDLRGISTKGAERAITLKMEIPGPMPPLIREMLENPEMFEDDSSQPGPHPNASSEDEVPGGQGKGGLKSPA
# [3] = molecular target: T3, Peroxisome proliferator-activated receptor gamma (Homo sapiens) (UniProt P37231); experiment: Ratio between effective concentrations (Agonist) in PPAR gamma; assay type: functional; settings: Cercopithecidae
# T3 sequence (whole entry): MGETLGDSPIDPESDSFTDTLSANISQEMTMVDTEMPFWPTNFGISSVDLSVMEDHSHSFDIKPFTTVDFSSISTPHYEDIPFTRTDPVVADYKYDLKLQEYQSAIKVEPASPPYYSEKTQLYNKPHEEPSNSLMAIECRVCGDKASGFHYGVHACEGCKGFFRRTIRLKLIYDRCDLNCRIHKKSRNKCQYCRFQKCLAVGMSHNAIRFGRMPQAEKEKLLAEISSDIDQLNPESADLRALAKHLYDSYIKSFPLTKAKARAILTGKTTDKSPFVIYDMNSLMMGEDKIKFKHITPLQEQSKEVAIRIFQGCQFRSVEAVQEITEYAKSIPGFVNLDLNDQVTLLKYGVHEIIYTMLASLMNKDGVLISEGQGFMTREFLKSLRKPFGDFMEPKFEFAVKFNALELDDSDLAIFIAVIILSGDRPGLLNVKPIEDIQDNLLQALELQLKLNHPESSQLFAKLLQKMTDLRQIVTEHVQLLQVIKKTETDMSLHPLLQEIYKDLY
# [4] = molecular target: T4, Retinoic acid receptor RXR-alpha (Homo sapiens, UniProt P19793); experiment: Ability to displace [3H]9-cis-RA from Retinoid X receptor alpha in CV-1 cells; assay type: cell-based, Cercopithecidae
# T4 sequence (P19793 whole entry): T1 sequence (whole entry)
# [5] = molecular target: T3, Peroxisome proliferator-activated receptor gamma (Homo sapiens); experiment: Ratio between agonistic efficacy in PPAR gamma; assay type: functional; settings: Cercopithecidae
# [6] = molecular target: T1, Retinoic acid receptor RXR-alpha (Homo sapiens); experiment: Agonistic efficacy in CV-1 cells (LGD1069 was used as reference); assay type: functional, cell-based; settings: Cercopithecidae
# [7] = molecular target: T4, Retinoic acid receptor RXR-alpha; experiment: Effective concentration required for agonistic activity in CV-1 cells expressing RXR-alpha; assay type: functional, cell-based, Cercopithecidae
# [8] = molecular target: T4, Retinoic acid receptor RXR-alpha; experiment: Effective concentration for antagonistic activity against RXR-alpha expressed in CV-1 cells; assay type: functional, cell-based, Cercopithecidae
Compound,Efficacy [1],Ki [2],Ratio [3],Ki [4],Ratio [5],Efficacy [6],EC50 [7],EC50 [8],Synergy (Cercopithecidae)
CCOc1c(-c2[nH]nc3ccc(/C(C)=C/C(=O)O)cc23)cc(C(C)C)cc1C(C)C,7%,–,118,–,168,43%,–,–,2.4
CCOc1c(-c2csc3cnc(/C(C)=C/C(=O)O)cc23)cc(C(C)C)cc1C(C)C,9%,–,347,–,127,15.1%,1440 nM,–,2
CCCCOc1c(-c2cn(C)c3ccc(/C(C)=C/C(=O)O)cc23)cc(C(C)C)cc1C(C)C,86%,> 10 µM,612,740 nM,49,2.52%,–,1530 nM,2.5
C/C(=C/C=C/C(C)=C/C(=O)O)c1cc(C(C)(C)C)cc(C(C)(C)C)c1OCCCF,84%,> 10 µM,3.1,2.7 nM,60,4%,–,6.4 nM,1.4
CCCCOc1c(-c2cccc3[nH]c(/C(C)=C/C(=O)O)cc23)cc(C(C)C)cc1C(C)C,64%,–,893,–,24.9,0.51%,–,3980 nM,1.1
CCOc1c(-c2n[nH]c3ccc(/C(C)=C/C(=O)O)cc23)cc(C(C)C)cc1C(C)C,–,> 10 µM,–,69.2 nM,–,–,235 nM,–,–
CCCOc1c(-c2c[nH]c3ccc(/C(C)=C/C(=O)O)cc23)cc(C(C)(C)C)cc1C(C)(C)C,81%,> 10 µM,7,1.6 nM,173,7%,–,30.1 nM,3.4
CCOc1c(\C(C)=C/C=C/C(C)=C/C(=O)O)cc(C(C)C)cc1C(C)C,7%,> 10 µM,8,–,38,58%,–,–,5

# Continued, in another order:
Efficacy [1],Ki [2],Ratio [3],Ki [4],Ratio [5],Efficacy [6],EC50 [7],EC50 [8],Compound,Synergy (Cercopithecidae)
24%,> 10 µM,306,648 nM,65,36%,1020 nM,–,CCOc1c(-c2noc3ccc(/C(C)=C/C(=O)O)cc23)cc(C(C)C)cc1C(C)C,1.7
9%,> 10 µM,425,2080 nM,81.8,7.93%,–,–,CCOc1c(-c2cnc3ccc(/C(C)=C/C(=O)O)cn23)cc(C(C)C)cc1C(C)C,1.5
87%,> 10 µM,15,7.4 nM,256,1.7%,–,21.1 nM,CCCCOc1c(-c2c[nH]c3ccc(/C(C)=C/C(=O)O)cc23)cc(C(C)C)cc1C(C)C,1.3
48%,> 10 µM,1480,395 nM,123,1.78%,–,4150 nM,C/C(=C\C(=O)O)c1ccc2scc(-c3cc(C(C)C)cc(C(C)C)c3OCCCF)c2c1,1.5
93%,> 10 µM,8.9,3.2 nM,105,1%,–,26.4 nM,CCCCOc1c(-c2c[nH]c3ccc(/C(C)=C/C(=O)O)cc23)cc(C(C)(C)C)cc1C(C)(C)C,2.3
41%,> 10 µM,21.9,1.6 nM,233,15%,65 nM,66.3 nM,C/C(=C\C(=O)O)c1ccc2[nH]cc(-c3cc(C(C)(C)C)cc(C(C)(C)C)c3OCC(F)F)c2c1,3
0%,> 10 µM,384,131 nM,112,37.4%,1440 nM,–,C/C(=C\C(=O)O)c1ccc2scc(-c3cc(C(C)C)cc(C(C)C)c3O)c2c1,3.5
0%,> 10 µM,224,29.6 nM,114,65.4%,914 nM,–,COc1c(-c2csc3ccc(/C(C)=C/C(=O)O)cc23)cc(C(C)C)cc1C(C)C,2.7
91%,> 10 µM,1890,–,12,2%,–,4 nM,CCCCOc1c(\C(C)=C/C=C/C(C)=C/C(=O)O)cc(C(C)C)cc1C(C)C,1
